# ChEMBL document CHEMBL5356995, “Aurones and derivatives as promising New Delhi metallo-β-lactamase (NDM-1) inhibitors” (Bioorg Med Chem, 2024)
# Key:
# [1] = target: Metallo-beta-lactamase type 2 (Bacteria, UniProt C7C422); assay: Inhibition of bacterial NDM-1
# Klebsiella pneumoniae = assay: Potentiation of meropenem induced antibacterial activity against blaNDM-1 producing Klebsiella pneumoniae SI-518 assessed as reduction in meropenem MIC at 32 ug/ml (reference value: 128 ug/ml); type: functional; conditions: dose 32 µg/ml
# Escherichia coli [2] = assay: Potentiation of meropenem induced antibacterial activity against blaNDM-1 producing Escherichia coli SI-004M assessed as reduction in meropenem MIC at 32 ug/ml (reference value: 64 ug/ml); type: functional; conditions: dose 32 µg/ml
# Escherichia coli [3] = assay: Potentiation of meropenem induced antibacterial activity against blaNDM-4 producing Escherichia coli SI-G001 assessed as reduction in meropenem MIC at 32 ug/ml (reference value: 128 ug/ml); type: functional; conditions: dose 32 µg/ml
# [4] = target: Metallo-beta-lactamase type 2 (Bacteria) (UniProt C7C422); assay: Inhibition of bacterial NDM-1 assessed as substrate hydrolysis at 100 uM using imipenem as substrate by spectrophotometric analysis relative to control
# Bacteria [5] = assay: Inhibition of bacterial VIM-2 assessed as substrate hydrolysis at 100 uM using imipenem as substrate by spectrophotometric analysis relative to control
# Bacteria [6] = assay: Inhibition of bacterial IMP-1 assessed as substrate hydrolysis at 100 uM using imipenem as substrate by spectrophotometric analysis relative to control
# Metallo-beta-lactamase type 2, sequence (C7C422 whole entry): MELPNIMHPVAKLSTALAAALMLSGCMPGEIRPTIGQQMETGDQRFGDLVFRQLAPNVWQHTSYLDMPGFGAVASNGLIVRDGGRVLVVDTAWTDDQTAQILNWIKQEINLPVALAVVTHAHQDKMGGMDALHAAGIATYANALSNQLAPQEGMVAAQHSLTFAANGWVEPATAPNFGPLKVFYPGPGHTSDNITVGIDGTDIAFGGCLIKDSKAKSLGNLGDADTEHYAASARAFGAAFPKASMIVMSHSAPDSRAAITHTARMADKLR
# Metallo-beta-lactamase type 2 (Bacteria), sequence (C7C422 whole entry): as above
structure (smiles),measurement,setting,value
O=C1/C(=C/c2ccc(O)c(O)c2)Cc2cc(O)cc(O)c21,Ki,[1],4.1 µM
O=C(O)[C@H](CCCn1c(-c2ccccc2)n[nH]c1=S)N(Cc1c[nH]cn1)Cc1c[nH]cn1,MIC,Klebsiella pneumoniae,≤ 0.5 µg/mL
same,MIC,Escherichia coli [2],≤ 0.5 µg/mL
same,MIC,Escherichia coli [3],≤ 0.5 µg/mL
same,inhibition,[4],97%
same,inhibition,Bacteria [5],96%
same,inhibition,Bacteria [6],40%
O=C(O)CN1CCN(CC(=O)O)CCN(CC(=O)O)CC1,Ki,[1],5.1 µM
N[C@@H](CN[C@@H](CN[C@@H](CC(O)O)C(=O)O)C(=O)O)C(=O)O,Ki,[1],0.011 µM
